PubChem BioAssay AID2202555 (NIEHS Division of Translational Toxicology (DTT))
Records with an inconclusive call do not appear. Activity calls are given as the source filed them. No rule for the calls is given here.

Each compound was assayed on rat and mouse 2-year carcinogenicity bioassay, tumor evidence (assay: Consolidated carcinogenicity assay summary data). Details: Route (rodents): Dosed feed.
Source text: Cancer Evaluation Criteria
The National Toxicology Program describes the results of individual experiments on a chemical agent and notes the strength of the evidence for conclusions regarding each study. […] Other organizations, such as the International Agency for Research on Cancer, assign a strength of evidence for conclusions based on an examination of all available evidence, including animal studies such as those conducted by the NTP, epidemiologic studies, and estimates of exposure. Thus, the actual determination of risk to humans from chemicals found to be carcinogenic in laboratory animals requires a wider analysis that extends beyond the purview of these studies.
Five categories of evidence of carcinogenic activity are used in the Technical Report series to summarize the strength of evidence observed in each experiment: two categories for positive results (clear evidence and some evidence); one category for uncertain findings (equivocal evidence); one category for no observable effects (no evidence); and one category for experiments that cannot be evaluated because of major flaws (inadequate study). These categories of interpretative conclusions were first adopted in June 1983 and then revised on March 1986 for use in the Technical Report series to incorporate more specifically the concept of actual weight of evidence of carcinogenic activity. For each separate experiment (male rats, female rats, male mice, female mice), one of the following five categories is selected to describe the findings. These categories refer to the strength of the experimental evidence and not to potency or mechanism.
For studies showing multiple chemical-related neoplastic effects that if considered individually would be assigned to different levels of evidence categories, the following convention has been adopted to convey completely the study results. In a study with clear evidence of carcinogenic activity at some tissue sites, other responses that alone might be deemed some evidence are indicated as "were also related" to chemical exposure. In studies with clear or some evidence of carcinogenic activity, other responses that alone might be termed equivocal evidence are indicated as "may have been" related to chemical exposure.
When a conclusion statement for a particular experiment is selected, consideration must be given to key factors that would extend the actual boundary of an individual category of evidence. Such consideration should allow for incorporation of scientific experience and current understanding of long-term carcinogenesis studies in laboratory animals, especially for those evaluations that may be on the borderline between two adjacent levels. These considerations should include:
- adequacy of the experimental design and conduct;
- occurrence of common versus uncommon neoplasia;
- progression (or lack thereof) from benign to malignant neoplasia as well as from preneoplastic to neoplastic lesions;
- some benign neoplasms have the capacity to regress but others (of the same morphologic type) progress. At present, it is impossible to identify the difference. Therefore, where progression is known to be a possibility, the most prudent course is to assume that benign neoplasms of those types have the potential to become malignant;
- combining benign and malignant tumor incidences known or thought to represent stages of progression in the same organ or tissue;
- latency in tumor induction;
- multiplicity in site -specific neoplasia;
- supporting information from proliferative lesions (hyperplasia) in the same site of neoplasia or in other experiments (same lesion in another sex or species);
- presence or absence of dose relationships;
- statistical significance of the observed tumor increase;
- concurrent control tumor incidence as well as the historical control rate and variability for a specific neoplasm;
- survival-adjusted analyses and false positive or false negative concerns;
- structure-activity correlations; and
[…]
With `COc1ccc([N+](=O)[O-])cc1N` the carcinogen call was “active; clear evidence”. With `O=C1c2ccccc2C(=O)c2ccccc21` the carcinogen call was “active; some evidence”. For `O=C1OC(c2ccc(O)cc2)(c2ccc(O)cc2)c2ccccc21`, the carcinogen call was “active; clear evidence”. With `O=C1c2ccccc2-c2ccc3c4c(ccc1c24)-c1ccccc1C3=O` the carcinogen call was “active; no evidence”. `CCn1cc(C(=O)O)c(=O)c2ccc(C)nc21` was tested, and the carcinogen call was “active; clear evidence”. In the case of `Nc1ncc([N+](=O)[O-])s1`, the carcinogen call is reported as “active; clear evidence”. For `CN(C)c1ccc(C(=O)c2ccc(N(C)C)cc2)cc1`, the carcinogen call was “active; clear evidence”. In the case of `CCCCC(CC)COC(=O)c1ccccc1C(=O)OCC(CC)CCCC` (stereo unspecified), the carcinogen call is reported as “active; clear evidence”. For `Brc1c(Br)c(Br)c(Oc2c(Br)c(Br)c(Br)c(Br)c2Br)c(Br)c1Br`, the carcinogen call was “active; some evidence”. For `Cc1cc(N=Nc2c(O)ccc3ccccc23)c(S(=O)(=O)O)cc1Cl`, the carcinogen call was “active; clear evidence”. With `CCOC(=O)C(O)(c1ccc(Cl)cc1)c1ccc(Cl)cc1` the carcinogen call was “active; equivocal evidence”. With `CNc1ccc(N(CCO)CCO)cc1[N+](=O)[O-]` the carcinogen call was “active; equivocal evidence”. For `O=c1c(O)c(-c2ccc(O)c(O)c2)oc2cc(O)cc(O)c12`, the carcinogen call was “active; some evidence”. `COc1ccccc1N` was tested, and the carcinogen call was “active; clear evidence”. In the case of `O=C(O)c1ccc([N+](=O)[O-])cc1`, the carcinogen call is reported as “active; no evidence”. With `O=[N+]([O-])c1ccc2c3c(cccc13)CC2` the carcinogen call was “active; clear evidence”. `COc1ccc(N)cc1N` was tested, and the carcinogen call was “active; clear evidence”. With `NS(=O)(=O)c1cc(C(=O)O)c(NCc2ccco2)cc1Cl` the carcinogen call was “active; equivocal evidence”. `Nc1ccc(N=Nc2ccccc2)c(N)n1` was tested, and the carcinogen call was “active; clear evidence”. For `c1ccc(NNc2ccccc2)cc1`, the carcinogen call was “active; clear evidence”. For `O=C([O-])c1cc(N=Nc2ccc(-c3ccc(N=Nc4c(O)ccc(N=Nc5cc(S(=O)(=O)[O-])ccc5[O-])c4[O-])cc3)cc2)ccc1O.[Cu+2].[Na+].[Na+]`, the carcinogen call was “active; no evidence”. With `CCOc1ccc(NC(C)=O)cc1N` the carcinogen call was “active; no evidence”. For `NCCCCCCCCCCC(=O)O`, the carcinogen call was “active; clear evidence”. `CN(C)c1ccc(Cc2ccc(N(C)C)cc2)cc1` was tested, and the carcinogen call was “active; clear evidence”. In the case of `CCCCOC(=O)c1ccccc1C(=O)OCc1ccccc1`, the carcinogen call is reported as “active; some evidence”. With `COc1cc(-c2ccc(N=C=O)c(OC)c2)ccc1N=C=O` the carcinogen call was “active; clear evidence”. In the case of `O=C(O)CN(CC(=O)O)CC(=O)O`, the carcinogen call is reported as “active; clear evidence”. With `Nc1ccc(O)c([N+](=O)[O-])c1` the carcinogen call was “active; clear evidence”. With `O=c1c(-c2ccc(O)cc2)coc2cc(O)cc(O)c12` the carcinogen call was “active; no evidence”. For `Cc1cc(Cl)ccc1N`, the carcinogen call was “active; no evidence”. For `Nc1ccc(Sc2ccc(N)cc2)cc1`, the carcinogen call was “active; clear evidence”. `Oc1ccc2ccccc2c1N=Nc1ccccc1` was tested, and the carcinogen call was “active; clear evidence”. With `C=C(Cl)CSC(=S)N(CC)CC` the carcinogen call was “active; clear evidence”. `COC(=O)C(c1ccccc1)C1CCCCN1` (stereo unspecified) was tested, and the carcinogen call was “active; no evidence”. With `CCCCC(CC)COC(=O)CCCCC(=O)OCC(CC)CCCC` (stereo unspecified) the carcinogen call was “active; no evidence”. With `O=[N+]([O-])c1ccc(Oc2ccc(Cl)cc2Cl)cc1` the carcinogen call was “active; no evidence”. In the case of `Cc1cnc[nH]1`, the carcinogen call is reported as “active; no evidence”. With `CC(CCl)OP(=O)(OC(C)CCl)OC(C)CCl` (stereo unspecified) the carcinogen call was “active; some evidence”. With `O=C1C2CC=CCC2C(=O)N1SC(Cl)(Cl)Cl` (stereo unspecified) the carcinogen call was “active; no evidence”. In the case of `[O-]/[N+](=N\O)c1ccccc1`, the carcinogen call is reported as “active; clear evidence”.

Same assay, conditions: Route (rodents): Dosed water
For `[O-][Cl+2]([O-])O`, the carcinogen call was “active; some evidence”. `COc1cc(-c2ccc(N)c(OC)c2)ccc1N` was tested, and the carcinogen call was “active; clear evidence”. For `Nc1ccc(Cc2ccc(N)cc2)cc1`, the carcinogen call was “active; clear evidence”. `NC(=O)C1CO1` (stereo unspecified) was tested, and the carcinogen call was “active; clear evidence”. In the case of `CCOC(N)=O`, the carcinogen call is reported as “active”.

Same assay, conditions: Route (rodents): Gavage
In the case of `CC(C)(c1cc(Br)c(O)c(Br)c1)c1cc(Br)c(O)c(Br)c1`, the carcinogen call is reported as “active; equivocal evidence”. With `CCCCC1C(=O)N(c2ccccc2)N(c2ccccc2)C1=O` the carcinogen call was “active; equivocal evidence”. In the case of `Oc1ccc(Cl)cc1Cc1ccccc1`, the carcinogen call is reported as “active; no evidence”. `Nc1ccc(Cl)cc1` was tested, and the carcinogen call was “active; clear evidence”. `CC(C)=C1CC[C@@H](C)CC1=O` was tested, and the carcinogen call was “active; no evidence”. `O=c1ccc2ccccc2o1` was tested, and the carcinogen call was “active; some evidence”. In the case of `CCCCC(CC)COP(=O)(OCC(CC)CCCC)OCC(CC)CCCC` (stereo unspecified), the carcinogen call is reported as “active; equivocal evidence”. For `OCC1CO1` (stereo unspecified), the carcinogen call was “active; clear evidence”. With `ClCC(Cl)CCl` the carcinogen call was “active; clear evidence”. For `ClC(Cl)Cl`, the carcinogen call was “active; clear evidence”. In the case of `COC(N)=O`, the carcinogen call is reported as “active; clear evidence”. In the case of `BrC(Br)Br`, the carcinogen call is reported as “active; some evidence”. `ClC(Cl)C(Cl)Cl` was tested, and the carcinogen call was “active; equivocal evidence”. In the case of `O=[N+]([O-])c1ccc(Nc2ccc(Nc3ccccc3)c(S(=O)(=O)O)c2)c([N+](=O)[O-])c1`, the carcinogen call is reported as “active; no evidence”. With `O=Cc1ccco1` the carcinogen call was “active; some evidence”. For `CC(C)CCC[C@@H](C)[C@H]1CC[C@H]2[C@@H]3CC=C4C[C@@H](OC(=O)Cc5ccc(N(CCCl)CCCl)cc5)CC[C@]4(C)[C@H]3CC[C@]12C`, the carcinogen call was “active; no evidence”. With `C=CCc1ccc(OC)c(OC)c1` the carcinogen call was “active; clear evidence”. For `O=C1CCc2ccccc2O1`, the carcinogen call was “active; some evidence”. `Clc1ccc(N=Nc2ccc(Cl)c(Cl)c2)cc1Cl` was tested, and the carcinogen call was “active; clear evidence”. In the case of `C=C(C)[C@H]1CC=C(C)CC1`, the carcinogen call is reported as “active; clear evidence”. For `C=C1C/C(=C/C)C(=O)O[C@@H]2CCN3CC=C(COC(=O)[C@@]1(O)CO)[C@H]23`, the carcinogen call was “active; clear evidence”. For `C=C(C)CCl`, the carcinogen call was “active; clear evidence”. `C=CC(=O)OCC` was tested, and the carcinogen call was “active; clear evidence”. With `CC1(C)COC1=O` the carcinogen call was “active; clear evidence”. In the case of `ClC(Cl)C(Cl)(Cl)Cl`, the carcinogen call is reported as “active; equivocal evidence”. With `O=Cc1ccccc1` the carcinogen call was “active; no evidence”. In the case of `ClC=C(Cl)Cl`, the carcinogen call is reported as “active; no evidence”. For `Cc1ccc(N(C)C)cc1`, the carcinogen call was “active; clear evidence”.

Same assay, conditions: Route (rodents): Gavage; Second Route: Administration in utero
`Cc1cn([C@H]2C[C@H](N=[N+]=[N-])[C@@H](CO)O2)c(=O)[nH]c1=O` was tested, and the carcinogen call was “active”.

Same assay, conditions: Route (rodents): Gavage; Second Route: Topical
In the case of `Clc1cc2c(cc1Cl)Oc1cc(Cl)c(Cl)cc1O2`, the carcinogen call is reported as “active; clear evidence”.

Same assay, conditions: Route (rodents): Inhalation
For `CC(O)COC(C)(C)C` (stereo unspecified), the carcinogen call was “active; equivocal evidence”. `FC(F)=C(F)F` was tested, and the carcinogen call was “active; clear evidence”. In the case of `C=C(C)C`, the carcinogen call is reported as “active; some evidence”. `CCCl` was tested, and the carcinogen call was “active; equivocal evidence”. `CCC1CO1` (stereo unspecified) was tested, and the carcinogen call was “active; clear evidence”. In the case of `ClCCl`, the carcinogen call is reported as “active; some evidence”. With `C=CC(=C)Cl` the carcinogen call was “active; clear evidence”. `FC(F)(F)c1ccc(Cl)cc1` was tested, and the carcinogen call was “active; some evidence”. For `CC(=O)CC(C)C`, the carcinogen call was “active; some evidence”. With `CC(=O)C(C)=O` the carcinogen call was “active; some evidence”. In the case of `c1ccc2c(c1)CCCC2`, the carcinogen call is reported as “active; some evidence”. For `C#CCO`, the carcinogen call was “active; some evidence”. `CC(C)c1ccccc1` was tested, and the carcinogen call was “active; clear evidence”. For `CC1CO1` (stereo unspecified), the carcinogen call was “active; some evidence”. In the case of `C=CCOCC1CO1` (stereo unspecified), the carcinogen call is reported as “active; equivocal evidence”. For `C=CC(=C)C`, the carcinogen call was “active; clear evidence”. `OCc1ccco1` was tested, and the carcinogen call was “active; some evidence”.

Same assay, conditions: Route (rodents): Interperitoneal
With `CNNCc1ccc(C(=O)NC(C)C)cc1` the carcinogen call was “active; clear evidence”. With `Nc1nc(=S)c2ncn([C@H]3C[C@H](O)[C@@H](CO)O3)c2[nH]1` the carcinogen call was “active; equivocal evidence”.

Same assay, conditions: Route (rodents): Topical
In the case of `OCCNCCO`, the carcinogen call is reported as “active; no evidence”. With `Oc1cc(Cl)ccc1Oc1ccc(Cl)cc1Cl` the carcinogen call was “active”.
